Data published in patent US9328099B2, “Cyanomethylpyrazole carboxamides as janus kinase inhibitors” (Merck Sharp & Dohme Corp., priority 2011, dated 2016).

Experiments:
JAK1 = JAK1 (Homo sapiens (Human), UniProt P23458); test: Jak Biochemical HTRF Assay, JAK1; details: HTRF biochemical assay, GST-tagged catalytic domain; top concentration tested […]; read-out: JAK1 IC50
Excerpt: (§1) Jak Biochemical HTRF Assay Protocol
(§2) Subsequent reagent additions employed an Agilent Bravo.

JAK2 = JAK2 (Homo sapiens (Human), UniProt O60674); test: Jak Biochemical HTRF Assay, JAK2; details: HTRF biochemical assay, GST-tagged catalytic domain; top concentration tested […]
Excerpt: as §1, §2

JAK1, sequence (P23458 875-1153): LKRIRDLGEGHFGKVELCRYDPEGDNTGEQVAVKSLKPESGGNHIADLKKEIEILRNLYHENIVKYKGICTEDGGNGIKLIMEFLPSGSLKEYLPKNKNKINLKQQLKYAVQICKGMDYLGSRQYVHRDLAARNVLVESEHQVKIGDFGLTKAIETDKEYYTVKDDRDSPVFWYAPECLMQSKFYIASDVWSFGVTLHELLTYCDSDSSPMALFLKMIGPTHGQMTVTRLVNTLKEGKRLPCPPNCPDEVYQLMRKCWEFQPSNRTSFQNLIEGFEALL
JAK2, sequence (O60674 849-1124): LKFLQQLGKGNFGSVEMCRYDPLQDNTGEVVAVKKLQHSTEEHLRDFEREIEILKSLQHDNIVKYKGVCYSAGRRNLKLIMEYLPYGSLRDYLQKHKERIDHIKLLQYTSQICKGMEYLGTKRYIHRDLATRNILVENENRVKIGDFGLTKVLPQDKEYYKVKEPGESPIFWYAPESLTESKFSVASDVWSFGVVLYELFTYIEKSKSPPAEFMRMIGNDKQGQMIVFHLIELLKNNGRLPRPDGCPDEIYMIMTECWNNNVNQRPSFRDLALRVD

Row | IC50 (JAK1) [nM] | IC50 (JAK2) [nM] | Compound
1 | 0.7 | 41 | N#CCC1(n2cc(C(N)=O)c(Nc3ccnc(F)c3)n2)CCN(Cc2cccc3cc[nH]c23)CC1 [Example 22-21, 1-[4-(cyanomethyl)-1-(1H-indol-7-ylmethyl)piperidin-4-yl]-3-[(2-fluoropyridin-4-yl)amino]-1H-pyrazole-4-carboxamide]
2 | 0.4 | 13 | Cc1cnc(F)c(CN2CCC(CC#N)(n3cc(C(N)=O)c(Nc4ccnc(F)c4)n3)CC2)c1 [Example 22-22, 1-{4-(cyanomethyl)-1-[(2-fluoro-5-methylpyridin-3-yl)methyl]piperidin-4-yl}-3-[(2-fluoropyridin-4-yl)amino]-1H-pyrazole-4-carboxamide]
3 | 0.1 | 6 | N#CCC1(n2cc(C(N)=O)c(Nc3ccnc(F)c3)n2)CCN(Cc2cccnc2F)CC1 [Example 22-23, 1-{4-(cyanomethyl)-1-[(2-fluoropyridin-3-yl)methyl]piperidin-4-yl}-3-[(2-fluoropyridin-4-yl)amino]-1H-pyrazole-4-carboxamide]
4 | 100 | > 1500 | CC(C)(O)C1CC(CN2CCC(CC#N)(n3cc(C(N)=O)c(Nc4ccnc(F)c4)n3)CC2)C1 (stereo not shown) [Example 22-24, 1-[4-(cyanomethyl)-1-{[3-(1-hydroxy-1-methylethyl)cyclobutyl]methyl}piperidin-4-yl]-3-[(2-fluoropyridin-4-yl)amino]-1H-pyrazole-4-carboxamide]
5 | 6 | 208 | N#CCC1(n2cc(C(N)=O)c(Nc3ccnc(F)c3)n2)CCN(Cc2cscn2)CC1 [Example 22-25, 1-[4-(cyanomethyl)-1-(1,3-thiazol-4-ylmethyl)piperidin-4-yl]-3-[(2-fluoropyridin-4-yl)amino]-1H-pyrazole-4-carboxamide]
6 | 6 | 117 | N#CCC1(n2cc(C(N)=O)c(Nc3ccnc(F)c3)n2)CCN(Cc2cocn2)CC1 [Example 22-26, 1-[4-(cyanomethyl)-1-(1,3-oxazol-4-ylmethyl)piperidin-4-yl]-3-[(2-fluoropyridin-4-yl)amino]-1H-pyrazole-4-carboxamide]
7 | 6 | 157 | Cc1cc(CN2CCC(CC#N)(n3cc(C(N)=O)c(Nc4ccnc(F)c4)n3)CC2)no1 [Example 22-27, 1-{4-(cyanomethyl)-1-[(5-methylisoxazol-3-yl)methyl]piperidin-4-yl}-3-[(2-fluoropyridin-4-yl)amino]-1H-pyrazole-4-carboxamide]
8 | 3 | 73 | N#CCC1(n2cc(C(N)=O)c(Nc3ccnc(F)c3)n2)CCN(Cc2ncco2)CC1 [Example 22-28, 1-[4-(cyanomethyl)-1-(1,3-oxazol-2-ylmethyl)piperidin-4-yl]-3-[(2-fluoropyridin-4-yl)amino]-1H-pyrazole-4-carboxamide]
9 | 2 | 37 | Cn1nccc1CN1CCC(CC#N)(n2cc(C(N)=O)c(Nc3ccnc(F)c3)n2)CC1 [Example 22-29, 1-{4-(cyanomethyl)-1-[(1-methyl-1H-pyrazol-5-yl)methyl]piperidin-4-yl}-3-[(2-fluoropyridin-4-yl)amino]-1H-pyrazole-4-carboxamide]
10 | 86 | > 1500 | Cn1ccc(CN2CCC(CC#N)(n3cc(C(N)=O)c(Nc4ccnc(F)c4)n3)CC2)n1 [Example 22-30, 1-{4-(cyanomethyl)-1-[(1-methyl-1H-pyrazol-3-yl)methyl]piperidin-4-yl}-3-[(2-fluoropyridin-4-yl)amino]-1H-pyrazole-4-carboxamide]
11 | 1 | 47 | N#CCC1(n2cc(C(N)=O)c(Nc3ccnc(F)c3)n2)CCN(Cc2ccon2)CC1 [Example 22-31, 1-[4-(cyanomethyl)-1-(isoxazol-3-ylmethyl)piperidin-4-yl]-3-[(2-fluoropyridin-4-yl)amino]-1H-pyrazole-4-carboxamide]
12 | 2 | 83 | N#CCC1(n2cc(C(N)=O)c(Nc3ccnc(F)c3)n2)CCN(Cc2cccc(F)n2)CC1 [Example 22-32, 1-{4-(cyanomethyl)-1-[(6-fluoropyridin-2-yl)methyl]piperidin-4-yl}-3-[(2-fluoropyridin-4-yl)amino]-1H-pyrazole-4-carboxamide]
13 | 2 | 81 | N#CCC1(n2cc(C(N)=O)c(Nc3ccnc(F)c3)n2)CCN(Cc2cccc3ccnn23)CC1 [Example 22-33, 1-[4-(cyanomethyl)-1-(pyrazolo[1,5-a]pyridin-7-ylmethyl)piperidin-4-yl]-3-[(2-fluoropyridin-4-yl)amino]-1H-pyrazole-4-carboxamide]
14 | 8 | 163 | N#CCC1(n2cc(C(N)=O)c(Nc3ccnc(F)c3)n2)CCN(Cc2cc3ccccn3n2)CC1 [Example 22-34, 1-[4-(cyanomethyl)-1-(pyrazolo[1,5-a]pyridin-2-ylmethyl)piperidin-4-yl]-3-[(2-fluoropyridin-4-yl)amino]-1H-pyrazole-4-carboxamide]
15 | 6 | 145 | N#CCC1(n2cc(C(N)=O)c(Nc3ccnc(F)c3)n2)CCN(Cc2cccnn2)CC1 [Example 22-35, 1-[4-(cyanomethyl)-1-(pyridazin-3-ylmethyl)piperidin-4-yl]-3-[(2-fluoropyridin-4-yl)amino]-1H-pyrazole-4-carboxamide]
16 | 2 | 97 | N#CCC1(n2cc(C(N)=O)c(Nc3ccnc(F)c3)n2)CCN(Cc2ccc(F)cn2)CC1 [Example 22-36, 1-{4-(cyanomethyl)-1-[(5-fluoropyridin-2-yl)methyl]piperidin-4-yl}-3-[(2-fluoropyridin-4-yl)amino]-1H-pyrazole-4-carboxamide]
17 | 88 | > 1500 | COC1CC(CN2CCC(CC#N)(n3cc(C(N)=O)c(Nc4ccnc(F)c4)n3)CC2)C1 (stereo not shown) [Example 22-37, 1-{4-(cyanomethyl)-1-[(3-methoxycyclobutyl)methyl]piperidin-4-yl}-3-[(2-fluoropyridin-4-yl)amino]-1H-pyrazole-4-carboxamide]
18 | 0.2 | 5 | N#CCC1(n2cc(C(N)=O)c(Nc3ccnc(F)c3)n2)CCN(Cc2cncc(F)c2)CC1 [Example 22-38, 1-{4-(cyanomethyl)-1-[(5-fluoropyridin-3-yl)methyl]piperidin-4-yl}-3-[(2-fluoropyridin-4-yl)amino]-1H-pyrazole-4-carboxamide]
19 | 0.2 | 14 | N#CCC1(n2cc(C(N)=O)c(Nc3ccnc(F)c3)n2)CCN(Cc2cc3ccccc3[nH]2)CC1 [Example 22-39, 1-[4-(cyanomethyl)-1-(1H-indol-2-ylmethyl)piperidin-4-yl]-3-[(2-fluoropyridin-4-yl)amino]-1H-pyrazole-4-carboxamide]
20 | 23 | 582 | Cc1c(CN2CCC(CC#N)(n3cc(C(N)=O)c(Nc4ccnc(F)c4)n3)CC2)cnn1C [Example 22-40, 1-{4-(cyanomethyl)-1-[(1,5-dimethyl-1H-pyrazol-4-yl)methyl]piperidin-4-yl}-3-[(2-fluoropyridin-4-yl)amino]-1H-pyrazole-4-carboxamide]
21 | 18 | 641 | N#CCC1(n2cc(C(N)=O)c(Nc3ccnc(F)c3)n2)CCN(Cc2nc3ccccc3[nH]2)CC1 [Example 22-41, 1-[1-(1H-benzimidazol-2-ylmethyl)-4-(cyanomethyl)piperidin-4-yl]-3-[(2-fluoropyridin-4-yl)amino]-1H-pyrazole-4-carboxamide]
22 | 18 | 582 | CC1=NOC(CN2CCC(CC#N)(n3cc(C(N)=O)c(Nc4ccnc(F)c4)n3)CC2)C1 (stereo not shown) [Example 22-42, 1-{4-(cyanomethyl)-1-[(3-methyl-4,5-dihydroisoxazol-5-yl)methyl]piperidin-4-yl}-3-[(2-fluoropyridin-4-yl)amino]-1H-pyrazole-4-carboxamide]
23 | 1 | 64 | N#CCC1(n2cc(C(N)=O)c(Nc3ccc(F)cc3)n2)CCN(Cc2cc3ccccc3[nH]2)CC1 [Example 22-43, 1-[4-(cyanomethyl)-1-(1H-indol-2-ylmethyl)piperidin-4-yl]-3-[(4-fluorophenyl)amino]-1H-pyrazole-4-carboxamide]
24 | 5 | 22 | Cc1cnc(F)c(CN2CCC(CC#N)(n3cc(C(N)=O)c(Nc4ccc(F)cc4)n3)CC2)c1 [Example 22-44, 1-{4-(cyanomethyl)-1-[(2-fluoro-5-methylpyridin-3-yl)methyl]piperidin-4-yl}-3-[(4-fluorophenyl)amino]-1H-pyrazole-4-carboxamide]
25 | 2 | 34 | N#CCC1(n2cc(C(N)=O)c(Nc3ccc(F)cc3)n2)CCN(Cc2ccon2)CC1 [Example 22-45, 1-[4-(cyanomethyl)-1-(isoxazol-3-ylmethyl)piperidin-4-yl]-3-[(4-fluorophenyl)amino]-1H-pyrazole-4-carboxamide]
26 | 3 | 95 | N#CCC1(n2cc(C(N)=O)c(Nc3ccc(F)cc3)n2)CCN(Cc2cccc(F)n2)CC1 [Example 22-46, 1-{4-(cyanomethyl)-1-[(6-fluoropyridin-2-yl)methyl]piperidin-4-yl}-3-[(4-fluorophenyl)amino]-1H-pyrazole-4-carboxamide]
27 | 6 | 100 | N#CCC1(n2cc(C(N)=O)c(Nc3ccc(F)cc3)n2)CCN(Cc2cccnn2)CC1 [Example 22-47, 1-[4-(cyanomethyl)-1-(pyridazin-3-ylmethyl)piperidin-4-yl]-3-[(4-fluorophenyl)amino]-1H-pyrazole-4-carboxamide]
28 | 2 | 73 | N#CCC1(n2cc(C(N)=O)c(Nc3ccc(F)cc3)n2)CCN(Cc2ccc(F)cn2)CC1 [Example 22-48, 1-{4-(cyanomethyl)-1-[(5-fluoropyridin-2-yl)methyl]piperidin-4-yl}-3-[(4-fluorophenyl)amino]-1H-pyrazole-4-carboxamide]
29 | 2 | 29 | N#CCC1(n2cc(C(N)=O)c(Nc3ccc(F)cc3)n2)CCN(Cc2cncc(F)c2)CC1 [Example 22-49, 1-{4-(cyanomethyl)-1-[(5-fluoropyridin-3-yl)methyl]piperidin-4-yl}-3-[(4-fluorophenyl)amino]-1H-pyrazole-4-carboxamide]
